pIC50: −log10 of the molar value. Read-outs that look alike come from different tables or passages of the source.
Experiments:
human GRK2S670A = biological target: T1, human GRK2S670A (Homo sapiens, UniProt P25098, S670A); assay: Primary DSF (differential scanning fluorimetry) inhibitor screen, GRK2; format: binding; conditions: 10 μM compound; for ΔTm at 10 µM: read-out: ΔTm, primary screen, GRK2; for rank in the primary screen, GRK2: rank ordering of compounds in primary DSF screen
T1 construct: when using full-length kinases as the receptor[37] instead of isolated kinase domains; made in house
T1 sequence (P25098 1-689 S670A): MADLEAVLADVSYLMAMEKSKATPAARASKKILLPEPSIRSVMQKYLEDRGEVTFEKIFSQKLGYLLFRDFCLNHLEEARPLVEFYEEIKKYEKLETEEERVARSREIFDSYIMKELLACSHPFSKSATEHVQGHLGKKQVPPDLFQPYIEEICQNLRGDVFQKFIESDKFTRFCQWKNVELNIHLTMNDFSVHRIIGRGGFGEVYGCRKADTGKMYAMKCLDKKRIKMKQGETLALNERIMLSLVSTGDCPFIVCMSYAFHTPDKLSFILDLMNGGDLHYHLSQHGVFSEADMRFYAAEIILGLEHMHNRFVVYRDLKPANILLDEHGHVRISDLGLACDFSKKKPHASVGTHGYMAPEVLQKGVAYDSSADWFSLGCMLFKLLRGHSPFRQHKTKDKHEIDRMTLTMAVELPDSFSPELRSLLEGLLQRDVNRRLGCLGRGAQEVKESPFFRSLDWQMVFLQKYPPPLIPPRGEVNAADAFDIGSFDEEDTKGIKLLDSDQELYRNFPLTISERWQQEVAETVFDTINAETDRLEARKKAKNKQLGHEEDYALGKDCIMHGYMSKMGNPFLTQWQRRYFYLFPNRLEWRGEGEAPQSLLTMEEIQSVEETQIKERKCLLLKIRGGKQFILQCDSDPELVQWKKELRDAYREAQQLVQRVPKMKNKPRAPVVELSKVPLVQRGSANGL

bovine GRK5 = biological target: T2, bovine GRK5 (Bos taurus, UniProt P43249); assay: Primary DSF inhibitor screen, GRK5; format: binding; conditions: 10 μM compound, 2 μM kinase, relative to DMSO control; read-out: ΔTm, primary screen, GRK5
T2 construct: when using full-length kinases as the receptor[37] instead of isolated kinase domains; made in house

GRK1 [1] = biological target: T3, GRK1 (Bos taurus, UniProt P28327); assay: DSF retest (confirmation), GRK1; format: binding, bovine; conditions: for GRK1 Tm: 0.2 mg mL^–1 kinase; for GRK1 ΔTm: relative to intrinsic melting point of the kinase
T3 construct: Bovine GRK1_1–535, bovine and human GRK2S670A; made in house
T3 sequence (P28327 1-535): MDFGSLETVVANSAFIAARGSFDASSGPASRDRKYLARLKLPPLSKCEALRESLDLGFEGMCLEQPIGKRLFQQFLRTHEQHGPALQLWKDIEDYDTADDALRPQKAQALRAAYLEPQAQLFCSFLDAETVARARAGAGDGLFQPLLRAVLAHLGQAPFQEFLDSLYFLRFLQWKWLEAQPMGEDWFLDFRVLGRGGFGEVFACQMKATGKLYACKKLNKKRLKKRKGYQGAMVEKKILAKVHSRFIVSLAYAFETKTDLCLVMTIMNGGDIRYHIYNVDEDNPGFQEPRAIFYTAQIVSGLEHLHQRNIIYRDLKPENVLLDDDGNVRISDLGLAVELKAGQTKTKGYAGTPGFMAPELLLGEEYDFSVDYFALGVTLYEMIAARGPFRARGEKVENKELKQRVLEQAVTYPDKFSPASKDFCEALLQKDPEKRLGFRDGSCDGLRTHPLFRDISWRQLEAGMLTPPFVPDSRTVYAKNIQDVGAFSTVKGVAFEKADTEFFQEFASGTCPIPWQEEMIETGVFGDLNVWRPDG

GRK2 [2] = biological target: T4, GRK2 (Homo sapiens, UniProt P25098, S670A); assay: DSF retest (confirmation), GRK2; format: binding; conditions: for GRK2 Tm: 0.2 mg mL^–1 kinase; for GRK2 ΔTm: relative to intrinsic melting point of the kinase
T4 construct: made in house
T4 sequence (P25098 1-689 S670A): T1 sequence (P25098 1-689 S670A)

GRK5 [3] = biological target: T5, GRK5 (Bos taurus, UniProt P43249); assay: DSF retest (confirmation), GRK5; format: binding, bovine; conditions: for GRK5 Tm: 0.2 mg mL^–1 kinase; for GRK5 ΔTm: relative to intrinsic melting point of the kinase
T5 construct: when using full-length kinases as the receptor[37] instead of isolated kinase domains; made in house

protein kinase A (PKA) = biological target: T6, protein kinase A (PKA) (Mus musculus, UniProt P05132); assay: DSF retest (confirmation), PKA; format: binding; conditions: for PKA Tm: 0.2 mg mL^–1 kinase; for PKA ΔTm: relative to intrinsic melting point of the kinase
T6 construct: His tag (inferred from pET15b vector and Ni-NTA column) (N); host or cells: E. coli Rosetta(DE3)pLysS
Outline: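 Thermal shift (ΔTm) measured by DSF with 0.2 mg mL^–1 PKA and 100 μM 1-anilinonaphthalene-8-sulfonic acid dye. Buffer: 20 mM HEPES pH 7.0, 5 mM MgCl2, 2 mM DTT, 1 mM CHAPS.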

GRK1 [4] = biological target: T3, GRK1; assay: In vitro phosphorylation assay (tubulin, 5 μM ATP), GRK1; format: biochemical, bovine
GRK2 [5] = biological target: T7, GRK2 (Bos taurus, UniProt P21146, S670A); assay: In vitro phosphorylation assay (tubulin, 5 μM ATP), GRK2; format: biochemical, bovine
T7 construct: made in house
T7 sequence (P21146 1-689 S670A): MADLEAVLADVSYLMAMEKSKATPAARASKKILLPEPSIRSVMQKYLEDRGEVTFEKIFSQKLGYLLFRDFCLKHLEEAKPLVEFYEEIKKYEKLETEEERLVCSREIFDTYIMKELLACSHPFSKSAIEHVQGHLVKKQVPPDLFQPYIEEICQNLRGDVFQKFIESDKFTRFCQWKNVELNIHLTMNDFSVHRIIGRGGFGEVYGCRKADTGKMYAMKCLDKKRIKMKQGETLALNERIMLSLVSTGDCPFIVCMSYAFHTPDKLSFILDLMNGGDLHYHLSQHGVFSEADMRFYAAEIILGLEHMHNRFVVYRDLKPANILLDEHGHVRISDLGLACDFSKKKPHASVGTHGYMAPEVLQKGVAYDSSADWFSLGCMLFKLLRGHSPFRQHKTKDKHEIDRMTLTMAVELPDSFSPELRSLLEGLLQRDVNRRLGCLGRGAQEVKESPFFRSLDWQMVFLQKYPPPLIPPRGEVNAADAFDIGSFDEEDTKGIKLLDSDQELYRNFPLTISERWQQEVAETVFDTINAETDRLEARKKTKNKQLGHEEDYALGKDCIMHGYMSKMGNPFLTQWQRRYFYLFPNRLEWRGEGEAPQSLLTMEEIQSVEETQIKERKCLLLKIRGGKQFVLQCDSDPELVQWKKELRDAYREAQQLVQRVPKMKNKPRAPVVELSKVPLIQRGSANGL

GRK5 [6] = biological target: T5, GRK5; assay: In vitro phosphorylation assay (tubulin, 5 μM ATP), GRK5; format: biochemical, bovine
PKA = biological target: T8, PKA (Mus musculus, UniProt P05132); assay: PKA inhibition assay (ADP-Glo, CREBtide, 100 μM ATP); format: biochemical; conditions: for IC50: logarithm of IC50 (−3.3 corresponds to 0.5 mM, footnote c), 438 nM PKA, 100 μM ATP, CREBtide, read-out: PKA log IC50 (converted)
T8 construct: His tag (inferred from pET15b vector and Ni-NTA column) (N); host or cells: E. coli Rosetta(DE3)pLysS

GRK1, 2, and 5 and PKA = assay: Ssel selectivity score calculated from inhibition of GRK1, 2, 5 and PKA; conditions: selectivity score from inhibition of GRK1, 2, 5 and PKA; <0.5 selective
ROCK1 = conditions: relative to GSK180736A (substitution effect); cited from earlier work
[7] = 2 μM kinase, relative to DMSO control

T5 sequence (P43249 whole entry, the tested form may be a part): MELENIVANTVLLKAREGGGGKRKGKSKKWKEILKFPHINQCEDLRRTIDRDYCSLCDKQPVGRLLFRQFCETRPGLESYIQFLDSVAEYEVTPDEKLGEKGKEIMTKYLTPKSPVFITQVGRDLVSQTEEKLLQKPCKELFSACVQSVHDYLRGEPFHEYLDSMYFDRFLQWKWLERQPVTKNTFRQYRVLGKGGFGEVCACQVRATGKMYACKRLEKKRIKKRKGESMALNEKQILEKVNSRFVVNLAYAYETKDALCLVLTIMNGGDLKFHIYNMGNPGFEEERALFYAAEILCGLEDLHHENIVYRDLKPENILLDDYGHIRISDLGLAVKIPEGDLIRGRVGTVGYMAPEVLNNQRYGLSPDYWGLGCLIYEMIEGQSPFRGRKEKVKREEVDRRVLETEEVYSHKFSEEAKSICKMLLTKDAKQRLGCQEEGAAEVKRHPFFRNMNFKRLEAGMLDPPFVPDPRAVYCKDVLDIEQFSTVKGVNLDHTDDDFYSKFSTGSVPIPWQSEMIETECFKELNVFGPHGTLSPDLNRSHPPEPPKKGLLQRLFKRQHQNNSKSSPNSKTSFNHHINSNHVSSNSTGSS
T2 sequence (P43249 whole entry, the tested form may be a part): as above

Structure (SMILES) | ΔTm at 10 µM (human GRK2S670A; [7]) | rank in the primary screen, GRK2 (human GRK2S670A) | ΔTm at 10 µM (bovine GRK5) | GRK1 Tm (GRK1 [1]) | GRK1 ΔTm (GRK1 [1]) | GRK2 Tm (GRK2 [2]) | GRK2 ΔTm (GRK2 [2]) | GRK5 Tm (GRK5 [3]) | GRK5 ΔTm (GRK5 [3]) | PKA Tm (protein kinase A (PKA)) | PKA ΔTm (protein kinase A (PKA)) | GRK2 fold (increase in potency relative to paroxetine) (GRK2 [5]) | GRK5 fold (increase in potency relative to paroxetine) (GRK5 [6]) | IC50 (PKA) | Ssel (GRK1, 2, and 5 and PKA) | increase in potency of ROCK inhibition (ROCK1) | other results
CC1=C(C(=O)Nc2ccc3[nH]ncc3c2)C(c2ccc(F)cc2)NC(c2ccc(C(F)(F)F)nc2)=N1 (stereo not drawn) [GSK317354A] | 3.78 °C | 6 | 2.29 °C | 23.2 °C | 3.3 °C | 49.0 °C | 11.4 °C | 27.3 °C | 0.6 °C | 45.9 °C | 0.5 °C | 0.50 fold | 0.20 fold | 200 µM | 0.109 | 10 fold | IC50 (GRK1 [4]; read-out: GRK1 log IC50 (converted)): > 1000 µM; IC50 (GRK2 [5]; read-out: GRK2 log IC50 (converted)): 2.51 µM; less potent than GSK180736A against GRK2 (GRK2 [5]; relative to GSK180736A): about 1 log; IC50 (GRK5 [6]; read-out: GRK5 log IC50 (converted)): 631 µM
CC1=C(C(=O)Nc2ccc3[nH]ncc3c2)C(c2ccc3ccccc3c2)CC(=O)N1 (stereo not drawn) [GSK270822A] | 3.82 °C | 5 | 3.92 °C | 24.6 °C | 4.7 °C | 47.8 °C | 10.3 °C | 29.4 °C | 2.6 °C | 51.9 °C | 6.5 °C | 0.10 fold | 2.0 fold | 50.1 µM | 0.883 | 5 fold | ΔTm, primary screen, GRK2 (human GRK2S670A; [7]): 3.8 °C; GRK1 fold (increase in potency relative to paroxetine) (GRK1 [4]; relative to paroxetine): 1 fold; pIC50 (PKA; read-out: IC50 against PKA): > 4.00
